Results taken from ChEMBL document CHEMBL4433245, “Discovery of GlyT2 Inhibitors Using Structure-Based Pharmacophore Screening and Selectivity Studies by FEP+ Calculations” (ACS Med Chem Lett, 2019).

Tests used:
[1] = target: Sodium- and chloride-dependent glycine transporter 1 (Mus musculus) (UniProt P28571); assay: Inhibition of mouse GlyT1 expressed in porcine aorta […] cells assessed as reduction in [3H]-Glycine uptake incubated for 10 mins at pH 7.4 by scintillation spectroscopy
[2] = target: Sodium- and chloride-dependent glycine transporter 1 (Mus musculus) (UniProt P28571); assay: Inhibition of mouse GlyT1 expressed in porcine aorta […] cells assessed as reduction in [3H]-Glycine uptake incubated for 10 mins at pH 7.4 by scintillation spectroscopy relative to untreated control

Sodium- and chloride-dependent glycine transporter 1 (Mus musculus), sequence (P28571 whole entry, looked up): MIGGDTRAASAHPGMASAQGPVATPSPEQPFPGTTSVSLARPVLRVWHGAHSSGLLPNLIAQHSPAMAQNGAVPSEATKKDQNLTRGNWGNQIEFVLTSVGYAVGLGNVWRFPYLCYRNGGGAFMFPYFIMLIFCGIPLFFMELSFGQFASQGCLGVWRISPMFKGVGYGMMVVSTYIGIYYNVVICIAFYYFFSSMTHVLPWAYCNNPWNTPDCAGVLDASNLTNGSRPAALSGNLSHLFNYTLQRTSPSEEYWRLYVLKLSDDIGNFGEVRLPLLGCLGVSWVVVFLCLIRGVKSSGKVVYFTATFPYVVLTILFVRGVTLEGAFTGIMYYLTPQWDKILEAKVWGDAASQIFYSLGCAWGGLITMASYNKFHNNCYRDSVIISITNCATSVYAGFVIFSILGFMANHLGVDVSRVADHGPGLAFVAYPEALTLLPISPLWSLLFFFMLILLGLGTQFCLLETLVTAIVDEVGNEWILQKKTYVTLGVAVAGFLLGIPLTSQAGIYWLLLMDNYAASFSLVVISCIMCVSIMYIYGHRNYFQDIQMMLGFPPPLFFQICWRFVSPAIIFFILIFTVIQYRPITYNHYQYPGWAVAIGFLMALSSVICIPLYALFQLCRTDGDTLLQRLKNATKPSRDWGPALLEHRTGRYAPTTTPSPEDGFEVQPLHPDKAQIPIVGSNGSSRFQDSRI

Row | IC50 [1] [µM] | inhibition [2] [%] | SMILES
1 | > 200 | – | O=c1[nH]c2c(c(=O)[nH]1)CCN(Cc1ccccc1)C2
2 | – | 80 | CN(CC[C@@H](Oc1ccc(-c2ccccc2)cc1)c1ccc(F)cc1)CC(=O)O
3 | > 200 | – | O=C(O)CCCCSc1ncnc2[nH]c(=O)[nH]c12
4 | > 200 | – | O=C(O)CCSc1[nH]c(=O)nc2[nH]c(=O)[nH]c12
